≈ marks a conversion by molar mass, not a printed value. Like-named read-outs stand apart in the source and are kept apart here. Positions of bridges follow the written chain, without caps; N, C: chain ends. Non-standard residues stand in square brackets, D forms with d. Residues, ends and D or L forms follow the SMILES beside them. *: point of attachment. Acetyl(1-adamantyl) = O=C(CC12CC3CC(CC(C3)C1)C2)*; Dab = NCC[C@H](N)C(=O)O; Butyryl = CCCC(=O)*
Columns and labels:
MRSA ATCC 33592 = assay type: cell-based, Staphylococcus aureus; settings: MRSA ATCC 33592 (methicillin-resistant Staphylococcus aureus)
Source text: (§1) Bacterial strains were either obtained from the American Type Culture Collection (ATCC), Canadian National Intensive Care Unit (CAN-ICU) surveillance study or the Canadian Ward Surveillance (CANWARD) study. Strains from both CAN-ICU and CANWARD are isolates recovered from patients diagnosed with a presumed infectious disease that were admitted in a participating medical center across Canada. Efflux-deficient strain PAO200 (lacking MexAB-OprM efflux system) and PA0750 (lacking MexAB-OprM, MexCD-OprJ, MexEF-OprN, MexJK and MexXY efflux systems, and the outer membrane protein OpmH) were kindly gifted by Dr. Ayush Kumar (University of Manitoba).
(§2) The in vitro antibacterial activity of the compounds studied were assessed by broth microdilution susceptibility testing following CLSI guidelines. Bacterial cultures were grown overnight prior to the assay. The overnight grown cultures were diluted in saline to 0.5 McFarland turbidity, followed by 1:50 dilution in Mueller-Hinton broth (MHB) for inoculation to a final concentration of approximately 5×10^5 colony forming units/mL. Testing was performed on 96-well plates where the tested compounds were 2-fold serially diluted in MHB and incubated with equal volumes of bacterial inoculum at 37° C. for 18 h. […] Wells containing MHB with or without bacterial cells were used as positive or negative control, respectively.

S. aureus ATCC 29213 = assay type: cell-based, Staphylococcus aureus; settings: S. aureus ATCC 29213
Source text: as §1, §2

MSSE CANWARD-2008 81388 = assay type: cell-based, Staphylococcus epidermidis; settings: MSSE CANWARD-2008 81388 (methicillin-susceptible Staphylococcus epidermidis)
Source text: as §1, §2

E. faecalis ATCC 29212 = assay type: cell-based; settings: E. faecalis ATCC 29212
Source text: as §1, §2

E. faecium ATCC 27270 = assay type: cell-based; settings: E. faecium ATCC 27270
Source text: as §1, §2

S. pneumoniae ATCC 49619 = assay type: cell-based; settings: S. pneumoniae ATCC 49619
Source text: as §1, §2

E. coli 107115 = assay type: cell-based, Escherichia coli
Source text: as §1, §2

E. coli ATCC 25922 = assay type: cell-based, Escherichia coli; settings: E. coli ATCC 25922
Source text: as §1, §2

E. coli CAN-ICU 61714 = assay type: cell-based, Escherichia coli; settings: E. coli CAN-ICU 61714
Source text: as §1, §2

E. coli CAN-ICU 63074 = assay type: cell-based, Escherichia coli; settings: E. coli CAN-ICU 63074
Source text: as §1, §2

P. aeruginosa ATCC 27853 = assay type: cell-based, Pseudomonas aeruginosa; settings: P. aeruginosa ATCC 27853
Source text: as §1, §2

[1] = test system: P. aeruginosa CAN-ICU 62308; assay type: cell-based, Pseudomonas aeruginosa; settings: P. aeruginosa CAN-ICU 62308
Source text: as §1, §2

P. aeruginosa PA095 = assay type: cell-based, Pseudomonas aeruginosa
Source text: as §1, §2

P. aeruginosa PA100036 = assay type: cell-based, Pseudomonas aeruginosa; settings: P. aeruginosa PA100036
Source text: as §1, §2

P. aeruginosa PA101885 = assay type: cell-based, Pseudomonas aeruginosa
Source text: as §1, §2

[2] = test system: P. aeruginosa PA259-96918; assay type: cell-based, Pseudomonas aeruginosa
Source text: as §1, §2

[3] = test system: P. aeruginosa PA260-97103; assay type: cell-based, Pseudomonas aeruginosa
Source text: as §1, §2

[4] = test system: P. aeruginosa PA262-101856; assay type: cell-based, Pseudomonas aeruginosa; settings: P. aeruginosa PA262-101856
Source text: as §1, §2

[5] = test system: P. aeruginosa PA264-104354; assay type: cell-based, Pseudomonas aeruginosa
Source text: as §1, §2

P. aeruginosa PAO1 = assay type: cell-based, Pseudomonas aeruginosa; settings: P. aeruginosa PAO1 (wild type)
Source text: as §1, §2

A. baumannii AB027 = assay type: cell-based, Acinetobacter baumannii; settings: A. baumannii AB027
Source text: as §1, §2

A. baumannii LAC-4 = assay type: cell-based, Acinetobacter baumannii
Source text: as §1, §2

E. coli 94393 = assay type: cell-based, Escherichia coli
Method: (§3) We then addressed the possibility for the dilipid polymyxins to display enhanced antibacterial activity against colistin-resistant Gram-negative pathogens. […] The extended hydrophobic region of the dilipid polymyxin may provide additional hydrophobic interactions to the outer membrane of colistin-resistant organisms. Eight MDR colistin-resistant Gram-negative bacterial isolates were tested, including two E. coli isolates harboring the mcr-1 plasmid-encoded polymyxin resistance gene. We found no difference between the antibacterial activity of dilipid polymyxins and colistin against colistin-resistant Gram-negative bacteria (Table 3).
as §1, §2

E. coli 94474 = assay type: cell-based, Escherichia coli
Method: as §3, §1, §2

P. aeruginosa 101243 = assay type: cell-based, Pseudomonas aeruginosa
Method: as §3, §1, §2

P. aeruginosa 114228 = assay type: cell-based, Pseudomonas aeruginosa
Method: as §3, §1, §2

P. aeruginosa 91433 = assay type: cell-based, Pseudomonas aeruginosa
Method: as §3, §1, §2

A. baumannii 92247 = assay type: cell-based, Acinetobacter baumannii
Method: as §3, §1, §2

K. pneumoniae 113250 = assay type: cell-based, Klebsiella pneumoniae
Method: as §3, §1, §2

K. pneumoniae 113254 = assay type: cell-based, Klebsiella pneumoniae
Method: as §3, §1, §2

| Molecule | MIC (MRSA ATCC 33592) [µg/mL] | MIC (S. aureus ATCC 29213) [µg/mL] | MIC (MSSE CANWARD-2008 81388) [µg/mL] | MIC (E. faecalis ATCC 29212) [µg/mL] | MIC (E. faecium ATCC 27270) [µg/mL] | MIC (S. pneumoniae ATCC 49619) [µg/mL] | MIC (E. coli 107115; E. coli 107115) [µg/mL] | MIC (E. coli ATCC 25922) [µg/mL] | MIC (E. coli CAN-ICU 61714) [µg/mL] | MIC (E. coli CAN-ICU 63074) [µg/mL] | MIC (P. aeruginosa ATCC 27853) [µg/mL] | MIC [1] [µg/mL] | MIC (P. aeruginosa PA095; P. aeruginosa PA095) [µg/mL] | MIC (P. aeruginosa PA100036) [µg/mL] | MIC (P. aeruginosa PA101885; P. aeruginosa PA101885) [µg/mL] | MIC ([2]; P. aeruginosa PA259-96918) [µg/mL] | MIC ([3]; P. aeruginosa PA260-97103) [µg/mL] | MIC [4] [µg/mL] | MIC (P. aeruginosa PAO1) [µg/mL] | MIC (A. baumannii AB027) [µg/mL] | also measured |
| --- | --- | --- | --- | --- | --- | --- | --- | --- | --- | --- | --- | --- | --- | --- | --- | --- | --- | --- | --- | --- | --- |
| CC(C)C[C@@H]1NC(=O)[C@@H](Cc2ccccc2)NC(=O)[C@H](CCN)NC(=O)[C@@H](NC(=O)[C@H](CCN)NC(=O)[C@@H](NC(=O)[C@H](CCNC(=O)CC23CC4CC(CC(C4)C2)C3)NC(=O)CC23CC4CC(CC(C4)C2)C3)[C@@H](C)O)CCNC(=O)[C@H]([C@@H](C)O)NC(=O)[C@H](CCN)NC(=O)[C@H](CCN)NC1=O [Compound 4, Diadamantane Acetic Acid (Di-Adamantyl) Polymyxin] ({Acetyl(1-adamantyl)}-[Dab](Acetyl(1-adamantyl))T[Dab][Dab][Dab][dF]L[Dab][Dab]T; lactam 4-C) | 32 (≈ 22.6 µM) | 16 (≈ 11.3 µM) | 16 (≈ 11.3 µM) | 32 (≈ 22.6 µM) | 16 (≈ 11.3 µM) | 32 (≈ 22.6 µM) | 4 (≈ 2.83 µM) | 4 (≈ 2.83 µM) | 64 (≈ 45.2 µM) | 64 (≈ 45.2 µM) | 16 (≈ 11.3 µM) | 16 (≈ 11.3 µM) | 4 (≈ 2.83 µM) | 8 (≈ 5.65 µM) | 8 (≈ 5.65 µM) | 8 (≈ 5.65 µM) | 4 (≈ 2.83 µM) | 8 (≈ 5.65 µM) | 4 (≈ 2.83 µM) | 64 (≈ 45.2 µM) | MIC ([5]; P. aeruginosa PA264-104354): 8 µg/mL (≈ 5.65 µM); MIC (A. baumannii LAC-4; A. baumannii LAC-4): 16 µg/mL (≈ 11.3 µM); MIC (E. coli 94393; 94393): 16 µg/mL (≈ 11.3 µM); MIC (E. coli 94474; 94474): 8 µg/mL (≈ 5.65 µM); MIC (P. aeruginosa 101243; 101243): 64 µg/mL (≈ 45.2 µM); MIC (P. aeruginosa 114228; 114228): 8 µg/mL (≈ 5.65 µM); MIC (P. aeruginosa 91433; 91433): 8 µg/mL (≈ 5.65 µM); MIC (A. baumannii 92247; 92247): 8 µg/mL (≈ 5.65 µM); MIC (K. pneumoniae 113250; 113250): >64 µg/mL; MIC (K. pneumoniae 113254; 113254): >64 µg/mL |
| colistin [reference compound] | 512 | 256 | 256 | 256 | 256 | 512 | 0.5 | 0.5 | 0.5 | ≤0.5 | 2 | 2 | 0.25 | 1 | 1 | 0.25 | 0.5 | 2 | 1 | 0.25 | MIC ([5]; P. aeruginosa PA264-104354): 2 µg/mL; MIC (A. baumannii LAC-4; A. baumannii LAC-4): 0.125 µg/mL; MIC (E. coli 94393; E. coli 94393, colistin-resistant multidrug-resistant isolate): 4 µg/mL; MIC (E. coli 94474; E. coli 94474, colistin-resistant multidrug-resistant isolate): 16 µg/mL; MIC (P. aeruginosa 101243; P. aeruginosa 101243, colistin-resistant multidrug-resistant isolate): 1024 µg/mL; MIC (P. aeruginosa 114228; P. aeruginosa 114228, colistin-resistant multidrug-resistant isolate): 4 µg/mL; MIC (P. aeruginosa 91433; P. aeruginosa 91433, colistin-resistant multidrug-resistant isolate): 4 µg/mL; MIC (A. baumannii 92247; A. baumannii 92247, colistin-resistant multidrug-resistant isolate): 4 µg/mL; MIC (K. pneumoniae 113250; K. pneumoniae 113250, colistin-resistant multidrug-resistant isolate): 256 µg/mL; MIC (K. pneumoniae 113254; K. pneumoniae 113254, colistin-resistant multidrug-resistant isolate): 256 µg/mL |
| CCCC(=O)NCC[C@H](NC(=O)CCC)C(=O)N[C@H](C(=O)N[C@@H](CCN)C(=O)N[C@H]1CCNC(=O)[C@H]([C@@H](C)O)NC(=O)[C@H](CCN)NC(=O)[C@H](CCN)NC(=O)[C@H](CC(C)C)NC(=O)[C@@H](Cc2ccccc2)NC(=O)[C@H](CCN)NC1=O)[C@@H](C)O [Compound 1, Dibutyric Acid (Di-C4) Polymyxin] (Butyryl-[Dab](Butyryl)T[Dab][Dab][Dab][dF]L[Dab][Dab]T; lactam 4-C) | >128 | >128 | >128 | >128 | >128 | >128 | – | >128 | >128 | >128 | >128 | >128 | – | >128 | – | – | – | >128 | 128 (≈ 106 µM) | >128 | MIC (E. coli 107115; 107115): 128 µg/mL (≈ 106 µM); MIC (P. aeruginosa PA095; PA095): 64 µg/mL (≈ 53.2 µM); MIC (P. aeruginosa PA101885; PA101885): 128 µg/mL (≈ 106 µM); MIC ([2]; PA259-96918): 64 µg/mL (≈ 53.2 µM); MIC ([3]; PA260-97103): 2 µg/mL (≈ 1.66 µM); MIC ([5]; PA264-104354): 128 µg/mL (≈ 106 µM); MIC (A. baumannii LAC-4; LAC-4): 128 µg/mL (≈ 106 µM); MIC (E. coli 94393; 94393): >64 µg/mL; MIC (E. coli 94474; 94474): >64 µg/mL; MIC (P. aeruginosa 101243; 101243): >128 µg/mL; MIC (P. aeruginosa 114228; 114228): >128 µg/mL; MIC (P. aeruginosa 91433; 91433): >128 µg/mL; MIC (A. baumannii 92247; 92247): >64 µg/mL; MIC (K. pneumoniae 113250; 113250): >64 µg/mL; MIC (K. pneumoniae 113254; 113254): >64 µg/mL |
